{"source": "patent US4605651A", "about": "“Antibiotic amino acid derivatives of cephalosporins” (Kyoto Pharmaceutical Industries, Ltd., priority 1982, dated 1986)", "key": {"[1]": {"parameters": "species or system humans", "details": "human, in vivo, po, 480 min", "from_the_text": "In humans, oral administration of the cephalosporin derivatives according to the present invention led to urinary recovery of the corresponding unesterified cephalosporins at the recovery rates shown below in the table. Method of administration: A 125-mg (on the unesterified form basis) capsule was orally administered. Assay: Microbial method using Bacillus subtilis"}, "[2]": {"assay": "Acute toxicity testing, oral, in mice", "details": "mouse, in vivo, aqueous solution, male ICR mice 5 weeks of age, n=3", "description": "The results obtained in oral acute toxicity testing of the cephalosporin derivatives according to the present invention in mice are shown below.\nAnimals: Male mice (ICR, 5 weeks of age), n=3\nMethod of administration: The cephalosporin derivatives obtained in the above examples were dissolved in distilled water and the aqueous solutions were orally administered."}}, "note": "Structures can show the parent of a compound that is named as a salt."}
{"compound": "Cn1nnnc1SCC1=C(C(=O)OCOC(=O)C(C)(C)C)N2C(=O)C(NC(=O)[C@H](OC(=O)CN)c3ccccc3)C2SC1", "note": "(stereo partly drawn) [Example 1, pivaloyloxymethyl 7-[D-O-(glycyl)mandelamido]-3-[(1-methyl-1H-tetrazol-5-yl)thiomethyl]-3-cephem-4-carboxylate hydrochloride]", "values": [{"measurement": "Percent urinary recovery (Hour 0 to Hour 8)", "setting": "[1]", "result": 38.0, "unit": "%"}, {"measurement": "LD50", "setting": "[2]", "result": 5000, "unit": "mg/kg"}]}
{"compound": "CC(=O)OC(C)OC(=O)C1=C(CSc2nnc(C)s2)CSC2C(NC(=O)[C@H](OC(=O)[C@H](C)N)c3ccccc3)C(=O)N12", "note": "(stereo partly drawn) [Example 2, 1-acetoxyethyl 7-[D-O-(L-alanyl)mandelamido]-3-[(5-methyl-1,3,4-thiadiazol-2-yl)thiomethyl]-3-cephem-4-carboxylate hydrochloride]", "values": [{"measurement": "Percent urinary recovery (Hour 0 to Hour 8)", "setting": "[1]", "result": 35.2, "unit": "%"}]}
{"compound": "CCOC(=O)OC(C)OC(=O)C1=C(CSc2nncs2)CSC2C(NC(=O)[C@H](OC(=O)[C@H](C)N)c3ccccc3)C(=O)N12", "note": "(stereo partly drawn) [Example 3, 1-ethoxycarbonyloxyethyl 7-[D-O-(L-alanyl)mandelamido]-3-[(1,3,4-thiadiazol-2-yl)thiomethyl]-3-cephem-4-carboxylate]", "values": [{"measurement": "Percent urinary recovery (Hour 0 to Hour 8)", "setting": "[1]", "result": 37.0, "unit": "%"}]}
{"compound": "Cc1nnc(SCC2=C(C(=O)OCOC(=O)C(C)(C)C)N3C(=O)C(NC(=O)[C@H](OC(=O)[C@@H](N)C(C)C)c4ccccc4)C3SC2)s1", "note": "(stereo partly drawn) [Example 6, Pivaloyloxymethyl 7-[D-O-(L-valyl)mandelamido]-3-[(5-methyl-1,3,4-thiadiazol-2-yl)thiomethyl]-3-cephem-4-carboxylate hydrochloride]", "values": [{"measurement": "Percent urinary recovery (Hour 0 to Hour 8)", "setting": "[1]", "result": 36.0, "unit": "%"}]}
{"compound": "Cc1nnc(SCC2=C(C(=O)OCOC(=O)C(C)(C)C)N3C(=O)C(NC(=O)[C@H](OC(=O)[C@@H]4CCCN4)c4ccccc4)C3SC2)s1", "note": "(stereo partly drawn) [Example 7, Pivaloyloxymethyl 7-[D-O-(L-prolyl)mandelamido]-3-[(5-methyl-1,3,4-thiadiazol-2-yl)thiomethyl]-3-cephem-4-carboxylate hydrochloride]", "values": [{"measurement": "Percent urinary recovery (Hour 0 to Hour 8)", "setting": "[1]", "result": 41.0, "unit": "%"}, {"measurement": "LD50", "setting": "[2]", "result": 5000, "unit": "mg/kg"}]}
{"compound": "Cc1nnc(SCC2=C(C(=O)OCc3oc(=O)oc3C)N3C(=O)C(NC(=O)[C@H](OC(=O)[C@H](C)N)c4ccccc4)C3SC2)s1", "note": "(stereo partly drawn) [Example 9, (5-Methyl-1,3-dioxolen-2-on-4-ylmethyl) 7-[D-O-(L-alanyl)mandelamido]-3-[(5-methyl-1,3,4-thiadiazol-2-yl)thiomethyl]-3-cephem-4-carboxylate hydrochloride]", "values": [{"measurement": "Percent urinary recovery (Hour 0 to Hour 8)", "setting": "[1]", "result": 41.0, "unit": "%"}, {"measurement": "LD50", "setting": "[2]", "result": 5000, "unit": "mg/kg"}]}
{"compound": "CC(=O)OC(C)OC(=O)C1=C(CSc2nnc(C)s2)CSC2C(NC(=O)[C@H](OC(=O)[C@@H]3CCCN3)c3ccccc3)C(=O)N12", "note": "(stereo partly drawn) [Example 17, 1-Acetoxyethyl 7-[D-O-(L-prolyl)mandelamido]-3-[(5-methyl-1,3,4-thiadiazol-2-yl)thiomethyl]-3-cephem-4-carboxylate hydrochloride]", "values": [{"measurement": "Percent urinary recovery (Hour 0 to Hour 8)", "setting": "[1]", "result": 40.9, "unit": "%"}, {"measurement": "LD50", "setting": "[2]", "result": 5000, "unit": "mg/kg"}]}
